Assays:
[1] = test system: MAXF 401; experiment: Cytotoxicity, propidium iodide based monolayer assay, MAXF 401; type: cell-based; conditions: Homo sapiens, MAXF401, 96 h; MAXF 401 (breast adeno carcinoma), four days of treatment, T/C=50%; read-out: Absolute IC50
Protocol: (§1) The cytotoxicity was tested for compounds of the invention on five different cell-lines, namely LXFL 1121, MAXF 401, MMXF L-636, PRXF PC-3M and UXF 1138 which are respectively lung large cell carcinoma, breast adeno carcinoma, multiple myeloma, prostate adeno carcinoma and uterine sarcoma.
(§2) A working stock solution of the test compounds was prepared in DMSO at a concentration of 33 mM or 8.25 mM, and small aliquots were stored at −20° C. On each day of an experiment, a frozen aliquot of the working stock solution was thawed and stored at room temperature prior to and during treatment.
(§3) All liquid handling steps were performed using the Tecan Freedom EVO 200 platform. First, serial 2-fold dilutions of the 33 mM DMSO working stock solution were done in DMSO. […]
(§4) A modified propidium iodide (PI) based monolayer assay was used to assess the anti-cancer activity of the compounds. Briefly, cells were harvested from exponential phase cultures, counted and plated in 96 well flat-bottom microtiter plates at a cell density of 4,000 to 40,000 cells/well dependent on the cell line's growth rate. […] After an incubation period of 1-2 hours at room temperature, fluorescence (FU) was measured using the Enspire Multimode Plate Reader (excitation λ=530 nm, emission λ=620 nm) to quantify the amount of attached viable cells. […]

[2] = test system: diabetic mice model; experiment: HbA1c in diabetic mice model (db/db); type: in vivo; conditions: PO 7 or 20 mg/kg BID or 40 mg/kg QD, 28 days of dosing, FIG. 1
Protocol: Compound #16 has been tested on a diabetic mice model. […] Therefore, this compound can be useful for treating diabetes.
Male db/db (BKS.Cg-m 1/1 Leprdb/J) mice aged 6 weeks at the time of arrival were obtained from Janvier (France) and acclimatized to their new environment. Animals were housed in groups of 2 in a light, temperature and humidity-controlled room (a 12-hour light/dark cycle, with lights off at 4 PM; 23+/−1° C.; 50% relative humidity). All animals had free access to standard Purina 5008 chow (LabDiet) and domestic-quality tap water.
The study was initiated in mice aged 8 weeks. Three days before first dosing, a blood sample was collected for determination of baseline blood glucose and hemoglobin A1c (HbA1c) levels. Based on these baseline HbA1c and fed blood glucose levels, mice were stratified into treatment groups (n=10) receiving vehicle (CMC (1.5% W/V) Sigma (ref.C9481), Tween 80 (0.25% V/V) Sigma (ref.59924) in water) or orally administered Compound #16 as follows: • 7 mg/kg, PO BID (twice a day) • 20 mg/kg, PO BID (twice a day) • 40 mg/kg PO QD (Once a day)
Throughout the experimental period, body weight and food and water intake were measured daily in the morning.
Animals were terminated after a total of 28 days of dosing. […]

[3] = test system: H1N1 (influenza A/New Caledonia/20/99); experiment: Antiviral effect on A549 cells infected with H1N1 (MUNANA neuraminidase readout); type: cell-based; conditions: H1N1 A/New Caledonia/20/99 at MOI 0.1, 48 h post-infection, MUNANA fluorescence, read-out: IC50
Protocol: The antiviral effect of the compounds of the invention have been tested on A549 cell lines infected with H1N1 (influenza A/New Caledonia/20/99).
Human A549 cells (80,000 cells/well in a 96 well plate) were treated with a range of concentration of test compounds and immediately infected by H1N1 A/New Caledonia/20/99 virus (clinical isolate) at MOI of 0.1 in DMEM/1% Penicillin/streptomycin supplemented with 0.25 μg/ml TPCK trypsin (Sigma) and incubated at 37° C. in 5% CO2. 48 h post-infection, supernatants (25 μl) were collected and transferred into a 96-well black flat-bottom plate, mixed with 25 μl PBS with Ca++/Mg++(Thermo Fisher) and 50 μl of 2′-(4-Methylumbelliferyl)-α-D-N-acetylneuraminic acid sodium salt hydrate stock-solution (20 μM, MUNANA, Sigma). Plates were incubated 1 h at 37° C. and reaction is stopped by adding 100 μl of Stop Solution (glycine 0.1 M pH10.7/25% ethanol). The amount of fluorescent product released by MUNANA hydrolysis (4-MU) was measured in a Tecan spectrophotometer with excitation and emission wavelengths of 365 and 450 nm respectively.

[4] = test system: LXFL 1121; experiment: Cytotoxicity, propidium iodide based monolayer assay, LXFL 1121; conditions: 96 h; LXFL 1121 (lung large cell carcinoma), four days of treatment, T/C=50%; read-out: Absolute IC50
Protocol: as §1, §2, §3, §4

[5] = test system: UXF 1138; experiment: Cytotoxicity, propidium iodide based monolayer assay, UXF 1138; type: cell-based; conditions: 96 h; UXF 1138 (uterine sarcoma), four days of treatment, T/C=50%; read-out: Absolute IC50
Protocol: as §1, §2, §3, §4

`O=C(Nc1scc(C2CCc3ccccc3C2)c1C(=O)O)c1ccccc1` (centres unmarked) [#16] was tested, and the IC50 [1] was 507 nM, the “Change of glycated hemoglobin, HbA1C” value [2] was “capable of reducing glycated hemoglobin” and the IC50 [3] was 11.1 nM. It also gave an IC50 [4] of 878 nM and an IC50 [5] of 324 nM.

Reference: patent publication US11767316B2, “Non-fused thiophene derivatives and their uses” (ENYO PHARMA, priority 2018, dated 2023)
